Experimental data as given in patent US8853203B2, “Diazepinone derivatives” (Novartis AG, priority 2012, dated 2014).

Assays:
human mGluR5a receptors = human mGluR5a receptors (Homo sapiens (Human), UniProt P41594); test: inhibition of glutamate-induced elevation of intracellular calcium in L(tk-) cells expressing human mGluR5a; format: cell-based; conditions: glutamate-induced intracellular calcium elevation, L(tk-) cells expressing human mGluR5a; read-out: mGluR5 IC50
How it was run: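 Compounds tested for inhibition of the glutamate-induced rise in intracellular calcium concentration in L(tk-) cells stably expressing human mGluR5a.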

human mGluR1 = human mGluR1 (Homo sapiens (Human), UniProt Q13255); test: mGluR1 antagonism, L-glutamate induced intracellular calcium increase (FLIPR) in CHO cells stably expressing human mGluR1; format: cell-based; conditions: for IC50: L-glutamate induced intracellular calcium, CHO cells expressing human mGluR1, FLIPR; for inhibition at 10 µM: CHO
human mGluR1, sequence (Q13255 19-1194): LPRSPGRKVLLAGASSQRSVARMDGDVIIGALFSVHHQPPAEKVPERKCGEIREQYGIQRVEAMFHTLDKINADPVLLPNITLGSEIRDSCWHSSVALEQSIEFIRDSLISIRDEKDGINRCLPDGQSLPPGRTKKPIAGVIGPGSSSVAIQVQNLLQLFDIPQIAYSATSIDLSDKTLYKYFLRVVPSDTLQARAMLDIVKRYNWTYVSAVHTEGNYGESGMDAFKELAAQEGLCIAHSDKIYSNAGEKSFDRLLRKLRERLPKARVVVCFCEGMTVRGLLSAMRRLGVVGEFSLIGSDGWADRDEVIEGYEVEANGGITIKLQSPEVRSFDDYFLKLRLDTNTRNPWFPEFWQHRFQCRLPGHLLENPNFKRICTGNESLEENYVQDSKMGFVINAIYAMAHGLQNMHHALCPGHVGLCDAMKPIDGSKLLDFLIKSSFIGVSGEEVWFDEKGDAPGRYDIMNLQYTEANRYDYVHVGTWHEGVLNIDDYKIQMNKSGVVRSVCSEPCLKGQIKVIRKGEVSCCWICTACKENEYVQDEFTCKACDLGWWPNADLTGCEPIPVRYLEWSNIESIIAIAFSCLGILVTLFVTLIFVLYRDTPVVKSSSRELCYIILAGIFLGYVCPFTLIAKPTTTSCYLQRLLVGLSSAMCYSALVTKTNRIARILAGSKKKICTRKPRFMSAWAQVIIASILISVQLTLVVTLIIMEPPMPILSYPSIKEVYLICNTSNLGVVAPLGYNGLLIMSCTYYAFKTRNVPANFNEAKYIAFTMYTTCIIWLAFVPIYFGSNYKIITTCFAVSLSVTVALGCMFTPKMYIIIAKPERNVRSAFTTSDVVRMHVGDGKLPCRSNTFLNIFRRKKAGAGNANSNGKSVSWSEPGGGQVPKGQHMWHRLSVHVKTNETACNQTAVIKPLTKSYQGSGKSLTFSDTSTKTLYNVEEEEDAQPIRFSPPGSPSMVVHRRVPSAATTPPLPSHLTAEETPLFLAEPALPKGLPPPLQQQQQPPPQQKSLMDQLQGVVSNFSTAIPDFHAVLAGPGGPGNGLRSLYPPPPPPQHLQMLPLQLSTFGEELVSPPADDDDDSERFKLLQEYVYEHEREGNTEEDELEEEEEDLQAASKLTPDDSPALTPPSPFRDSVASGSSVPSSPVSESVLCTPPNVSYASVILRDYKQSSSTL

human mGluR5a receptors, sequence (P41594 other isoform, or with tags, fused parts or gaps): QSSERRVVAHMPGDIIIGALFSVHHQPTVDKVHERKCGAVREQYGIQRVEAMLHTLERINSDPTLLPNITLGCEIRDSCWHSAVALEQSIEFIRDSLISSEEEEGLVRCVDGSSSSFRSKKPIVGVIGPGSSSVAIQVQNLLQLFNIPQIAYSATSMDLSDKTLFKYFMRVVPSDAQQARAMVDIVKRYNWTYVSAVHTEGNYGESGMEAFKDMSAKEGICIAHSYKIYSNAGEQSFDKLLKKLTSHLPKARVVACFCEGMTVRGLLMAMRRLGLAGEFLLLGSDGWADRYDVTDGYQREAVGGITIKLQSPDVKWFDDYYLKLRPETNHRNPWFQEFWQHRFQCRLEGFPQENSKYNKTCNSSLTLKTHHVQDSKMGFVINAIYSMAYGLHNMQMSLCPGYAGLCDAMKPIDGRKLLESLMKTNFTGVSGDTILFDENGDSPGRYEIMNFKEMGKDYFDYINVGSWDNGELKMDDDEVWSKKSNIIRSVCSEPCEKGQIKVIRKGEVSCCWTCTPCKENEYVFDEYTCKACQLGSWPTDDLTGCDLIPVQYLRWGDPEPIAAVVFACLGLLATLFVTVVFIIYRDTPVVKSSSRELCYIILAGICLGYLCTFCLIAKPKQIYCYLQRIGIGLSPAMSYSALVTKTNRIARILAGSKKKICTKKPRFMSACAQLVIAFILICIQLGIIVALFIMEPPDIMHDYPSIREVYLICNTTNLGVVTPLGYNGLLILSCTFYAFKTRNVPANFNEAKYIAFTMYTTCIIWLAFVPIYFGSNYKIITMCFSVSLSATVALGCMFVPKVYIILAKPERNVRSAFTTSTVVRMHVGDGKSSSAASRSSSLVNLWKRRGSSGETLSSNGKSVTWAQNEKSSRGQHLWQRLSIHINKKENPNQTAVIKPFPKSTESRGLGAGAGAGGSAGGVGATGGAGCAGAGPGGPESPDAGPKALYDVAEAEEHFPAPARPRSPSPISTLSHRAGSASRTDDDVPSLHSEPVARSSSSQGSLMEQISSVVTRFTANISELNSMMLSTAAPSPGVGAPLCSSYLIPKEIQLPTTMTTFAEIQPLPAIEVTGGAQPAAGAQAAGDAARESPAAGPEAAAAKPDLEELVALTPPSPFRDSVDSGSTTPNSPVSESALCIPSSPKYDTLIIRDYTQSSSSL

Structure (SMILES)	IC50 (human mGluR5a receptors)	IC50 (human mGluR1)	inhibition at 10 µM (human mGluR1)
O=C1CN=C(n2cnc(C3CCC3)c2)C=C2c3cccc(N4CCOCC4)c3CCN12 [Example 70, 2-(4-cyclobutyl-1H-imidazol-1-yl)-9-morpholino-7,8-dihydro-[1,4]diazepino[7,1-a]isoquinolin-5(4H)-one]	49 nM	> 10000 nM	
COCc1cn(C2=NCC(=O)N3CCc4c(cccc4-c4nccs4)C3=C2)cn1 [Example 71, 2-(4-(methoxymethyl)-1H-imidazol-1-yl)-9-(thiazol-2-yl)-7,8-dihydro-[1,4]diazepino[7,1-a]isoquinolin-5(4H)-one]	27 nM	6400 nM	
CC(C)c1cn(C2=NCC(=O)N3CCc4c(cccc4-c4cnn(C)c4)C3=C2)cn1 [Example 72, 2-(4-isopropyl-1H-imidazol-1-yl)-9-(1-methyl-1H-pyrazol-4-yl)-7,8-dihydro-[1,4]diazepino[7,1-a]isoquinolin-5(4H)-one]	275 nM	> 10000 nM	
CC(C)c1cn(C2=NCC(=O)N3CCc4c(cccc4-c4nccn4C)C3=C2)cn1 [Example 73, 2-(4-isopropyl-1H-imidazol-1-yl)-9-(1-methyl-1H-imidazol-2-yl)-7,8-dihydro-[1,4]diazepino[7,1-a]isoquinolin-5(4H)-one]	3500 nM	> 10000 nM	
CCc1cn(C2=NCC(=O)N3CCc4c(cccc4-c4ncco4)C3=C2)cn1 [Example 74, 2-(4-ethyl-1H-imidazol-1-yl)-9-(oxazol-2-yl)-7,8-dihydro-[1,4]diazepino[7,1-a]isoquinolin-5(4H)-one]	22 nM	1200 nM	
CCc1cn(C2=NCC(=O)N3CCc4c(cccc4-c4ccco4)C3=C2)cn1 [Example 75, 2-(4-ethyl-1H-imidazol-1-yl)-9-(furan-2-yl)-7,8-dihydro-[1,4]diazepino[7,1-a]isoquinolin-5(4H)-one]	9 nM	170 nM	
COCCc1cn(C2=NCC(=O)N3CCc4c(cccc4-c4cscn4)C3=C2)cn1 [Example 76, 2-(4-(2-methoxyethyl)-1H-imidazol-1-yl)-9-(thiazol-4-yl)-7,8-dihydro-[1,4]diazepino[7,1-a]isoquinolin-5(4H)-one]	34 nM	4200 nM	
COCc1cn(C2=NCC(=O)N3CCc4c(cccc4-c4ncc(C)s4)C3=C2)cn1 [Example 77]	32 nM		73%
Cc1cn(C2=NCC(=O)N3CCc4c(cccc4-c4cncnc4)C3=C2)cn1 [Example 78, 2-(4-methyl-1H-imidazol-1-yl)-9-(pyrimidin-5-yl)-7,8-dihydro-[1,4]diazepino[7,1-a]isoquinolin-5(4H)-one]	540 nM	> 10000 nM	
Cc1cn(C2=NCC(=O)N3CCc4c(cccc4-c4ccncc4)C3=C2)cn1 [Example 80, 2-(4-methyl-1H-imidazol-1-yl)-9-(pyridin-4-yl)-7,8-dihydro-[1,4]diazepino[7,1-a]isoquinolin-5(4H)-one]	145 nM	> 10000 nM	
Cc1cn(C2=NCC(=O)N3CCc4c(cccc4-c4cncs4)C3=C2)cn1 [Example 82, 2-(4-methyl-1H-imidazol-1-yl)-9-(thiazol-5-yl)-7,8-dihydro-[1,4]diazepino[7,1-a]isoquinolin-5(4H)-one]	72 nM	> 10000 nM	
O=C1CN=C(n2cnc(Cl)c2)C=C2c3cccc(-c4cncc(F)c4)c3CCN12 [Example 83, 2-(4-chloro-1H-imidazol-1-yl)-9-(5-fluoropyridin-3-yl)-7,8-dihydro-[1,4]diazepino[7,1-a]isoquinolin-5(4H)-one]	205 nM	> 10000 nM	
COCCc1cn(C2=NCC(=O)N3CCc4c(cccc4-c4ccc(F)nc4)C3=C2)cn1 [Example 84, 9-(6-fluoropyridin-3-yl)-2-(4-(2-methoxyethyl)-1H-imidazol-1-yl)-7,8-dihydro-[1,4]diazepino[7,1-a]isoquinolin-5(4H)-one]	28 nM	> 10000 nM	
C=Cc1cccc2c1CCN1C(=O)CN=C(n3cnc(COC)c3)C=C21 [Example 85, 2-(4-(methoxymethyl)-1H-imidazol-1-yl)-9-vinyl-7,8-dihydro-[1,4]diazepino[7,1-a]isoquinolin-5(4H)-one]	39 nM	1600 nM	
CCc1cn(C2=NCC(=O)N3CCc4c(cccc4-c4ccc(F)cc4)C3=C2)cn1 [Example 86, 2-(4-ethyl-1H-imidazol-1-yl)-9-(4-fluorophenyl)-7,8-dihydro-[1,4]diazepino[7,1-a]isoquinolin-5(4H)-one]	12 nM	5900 nM	
CCCc1cccc2c1CCN1C(=O)CN=C(n3cnc(-c4ncco4)c3)C=C21 [Example 88a, 2-(4-(oxazol-2-yl)-1H-imidazol-1-yl)-9-propyl-7,8-dihydro-[1,4]diazepino[7,1-a]isoquinolin-5(4H)-one]	5 nM		24%

Second part, the compound after the results:

IC50 (human mGluR5a receptors)	IC50 (human mGluR1)	inhibition at 10 µM (human mGluR1)	Structure (SMILES)
130 nM	> 10000 nM		Cc1cn(C2=NCC(=O)N3CCc4c(cccc4-c4cccnc4)C3=C2)cn1 [Example 79, 2-(4-methyl-1H-imidazol-1-yl)-9-(pyridin-3-yl)-7,8-dihydro-[1,4]diazepino[7,1-a]isoquinolin-5(4H)-one]
36 nM	> 10000 nM		Cc1cn(C2=NCC(=O)N3CCc4c(cccc4-c4ccc(F)nc4)C3=C2)cn1 [Example 81, 9-(6-fluoropyridin-3-yl)-2-(4-methyl-1H-imidazol-1-yl)-7,8-dihydro-[1,4]diazepino[7,1-a]isoquinolin-5(4H)-one]
148 nM		56%	Cc1coc(-c2cccc3c2CCN2C(=O)CN=C(n4cnc(C5CC5)c4)C=C32)n1 [Example 87, 2-(4-cyclopropyl-1H-imidazol-1-yl)-9-(4-methyloxazol-2-yl)-7,8-dihydro-[1,4]diazepino[7,1-a]isoquinolin-5(4H)-one]
131 nM		47%	Cc1cnc(-c2cccc3c2CCN2C(=O)CN=C(n4cnc(C5CC5)c4)C=C32)o1 [Example 88, 2-(4-cyclopropyl-1H-imidazol-1-yl)-9-(5-methyloxazol-2-yl)-7,8-dihydro-[1,4]diazepino[7,1-a]isoquinolin-5(4H)-one]
20 nM	> 2000 nM		O=C1CN=C(n2cnc(C3CC3)n2)C=C2c3cccc(-c4nccnc4F)c3CCN12 [Example 88b, 2-(3-cyclopropyl-1H-1,2,4-triazol-1-yl)-9-(3-fluoropyrazin-2-yl)-7,8-dihydro-[1,4]diazepino[7,1-a]isoquinolin-5(4H)-one]
271 nM	> 10000 nM		O=C1CN=C(n2cnc(C3CC3)n2)C=C2c3cccc(-c4ncccc4F)c3CCN12 [Example 88c, 2-(3-cyclopropyl-1H-1,2,4-triazol-1-yl)-9-(3-fluoropyridin-2-yl)-7,8-dihydro-[1,4]diazepino[7,1-a]isoquinolin-5(4H)-one]
31 nM	> 2000 nM		O=C1CN=C(n2cnc(C3CC3)c2)C=C2c3cccc(-c4cncs4)c3CCN12 [Example 88d, 2-(4-cyclopropyl-1H-imidazol-1-yl)-9-(thiazol-5-yl)-7,8-dihydro-[1,4]diazepino[7,1-a]isoquinolin-5(4H)-one]
34 nM	3880 nM		Cc1ncc(-c2cccc3c2CCN2C(=O)CN=C(n4cnc(C5CC5)c4)C=C32)s1 [Example 88e, 2-(4-cyclopropyl-1H-imidazol-1-yl)-9-(2-methylthiazol-5-yl)-7,8-dihydro-[1,4]diazepino[7,1-a]isoquinolin-5(4H)-one]
